Experimental findings from ChEMBL document CHEMBL3817847, “Design and synthesis of fused soluble epoxide hydrolase/peroxisome proliferator-activated receptor modulators” (Medchemcomm, 2016) are described below.

The source made the active and inactive calls. The rule behind the calls is not given here.

Usually IC50 stands for the concentration that gives 50% inhibition. One may read the EC50 as the concentration giving half of the maximal effect.

Test [1] addresses T1, Bifunctional epoxide hydrolase 2 (Homo sapiens, UniProt P34913).
T1 sequence (P34913 whole entry): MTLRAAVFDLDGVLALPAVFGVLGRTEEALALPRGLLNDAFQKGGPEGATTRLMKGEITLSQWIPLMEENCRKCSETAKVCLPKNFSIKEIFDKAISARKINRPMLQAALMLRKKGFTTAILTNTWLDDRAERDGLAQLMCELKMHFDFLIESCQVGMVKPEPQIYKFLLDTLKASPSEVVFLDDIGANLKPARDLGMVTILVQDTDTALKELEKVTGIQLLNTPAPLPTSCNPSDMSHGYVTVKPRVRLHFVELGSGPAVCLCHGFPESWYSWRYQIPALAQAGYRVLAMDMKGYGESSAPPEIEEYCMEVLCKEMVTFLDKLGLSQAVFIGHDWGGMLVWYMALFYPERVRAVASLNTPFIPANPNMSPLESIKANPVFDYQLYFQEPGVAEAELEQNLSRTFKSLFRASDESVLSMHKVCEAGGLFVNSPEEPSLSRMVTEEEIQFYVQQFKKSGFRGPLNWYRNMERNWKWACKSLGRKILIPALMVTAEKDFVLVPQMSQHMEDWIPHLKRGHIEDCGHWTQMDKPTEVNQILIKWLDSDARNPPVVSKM
Kind of test: Inhibition of recombinant human […] assessed as product formation preincubated for 30 mins followed by addition of (3-phenyl-cyano-(6-methoxy-2-naphthalenyl)methyl ester-2-oxirane-acetic acid as substrate measured after 30 mins by fluorescence analysis.

Test [2] addresses T2, Peroxisome proliferator-activated receptor alpha (Homo sapiens, UniProt Q07869).
T2 sequence (Q07869 whole entry): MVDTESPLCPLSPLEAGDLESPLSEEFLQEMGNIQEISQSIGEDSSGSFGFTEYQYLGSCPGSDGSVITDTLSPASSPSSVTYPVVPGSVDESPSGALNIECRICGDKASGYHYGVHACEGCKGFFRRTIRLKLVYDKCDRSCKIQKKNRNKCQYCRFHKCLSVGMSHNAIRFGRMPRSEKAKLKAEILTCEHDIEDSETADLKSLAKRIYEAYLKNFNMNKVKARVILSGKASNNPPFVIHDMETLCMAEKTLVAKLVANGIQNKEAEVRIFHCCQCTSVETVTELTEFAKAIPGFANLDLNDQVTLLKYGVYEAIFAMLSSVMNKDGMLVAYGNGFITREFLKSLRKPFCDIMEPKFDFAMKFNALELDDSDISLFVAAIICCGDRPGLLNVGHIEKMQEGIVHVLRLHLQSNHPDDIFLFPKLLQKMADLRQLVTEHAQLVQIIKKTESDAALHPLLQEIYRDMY
Nature of the test: Agonist activity at Gal4-tagged human PPARalpha ligand binding domain expressed in COS-7 cells measured after overnight incubation by dual-glo luciferase reporter gene assay. The test is classed as cell-based.

Test [3] has as its target T3, Peroxisome proliferator-activated receptor delta (Homo sapiens, UniProt Q03181).
T3 sequence (Q03181 whole entry): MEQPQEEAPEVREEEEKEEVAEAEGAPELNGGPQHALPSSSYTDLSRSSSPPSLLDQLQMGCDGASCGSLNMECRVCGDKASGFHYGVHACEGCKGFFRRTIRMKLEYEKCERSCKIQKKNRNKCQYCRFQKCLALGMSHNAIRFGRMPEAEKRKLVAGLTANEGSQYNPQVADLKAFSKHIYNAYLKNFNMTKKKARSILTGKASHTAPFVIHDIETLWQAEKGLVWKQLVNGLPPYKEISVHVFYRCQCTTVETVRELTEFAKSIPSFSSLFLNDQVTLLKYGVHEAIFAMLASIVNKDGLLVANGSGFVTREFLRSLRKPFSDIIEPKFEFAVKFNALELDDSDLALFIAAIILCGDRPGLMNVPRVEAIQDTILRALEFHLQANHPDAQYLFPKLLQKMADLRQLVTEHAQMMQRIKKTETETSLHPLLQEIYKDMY
Nature of the test: Agonist activity at Gal4-tagged human PPARdelta ligand binding domain expressed in COS-7 cells measured after overnight incubation by dual-glo luciferase reporter gene assay. The class given is cell-based. On the technique in general: Reporter assays use an easily measured gene product as a stand-in for the process of interest.

In test [4] the target is T4, Peroxisome proliferator-activated receptor gamma (Homo sapiens, UniProt P37231).
T4 sequence (P37231 whole entry): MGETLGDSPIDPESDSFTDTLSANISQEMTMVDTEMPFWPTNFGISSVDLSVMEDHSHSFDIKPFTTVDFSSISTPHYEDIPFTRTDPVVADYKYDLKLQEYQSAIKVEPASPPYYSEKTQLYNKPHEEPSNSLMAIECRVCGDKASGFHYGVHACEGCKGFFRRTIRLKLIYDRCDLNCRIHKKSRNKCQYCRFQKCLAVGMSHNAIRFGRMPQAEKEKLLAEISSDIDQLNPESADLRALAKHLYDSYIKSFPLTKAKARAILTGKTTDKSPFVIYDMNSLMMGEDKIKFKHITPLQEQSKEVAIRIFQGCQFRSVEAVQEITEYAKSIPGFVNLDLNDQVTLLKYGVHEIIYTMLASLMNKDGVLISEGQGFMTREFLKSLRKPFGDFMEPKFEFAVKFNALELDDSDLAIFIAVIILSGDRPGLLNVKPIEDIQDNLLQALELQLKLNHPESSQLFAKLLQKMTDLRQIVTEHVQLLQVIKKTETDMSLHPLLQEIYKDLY
Kind of test: Agonist activity at Gal4-tagged human PPARgamma ligand binding domain expressed in COS-7 cells measured after overnight incubation by dual-glo luciferase reporter gene assay. The class given is cell-based.

In test [5] the test system is 3T3-L1. Kind of test: Partial agonist activity at PPAR in mouse 3T3L1 cells assessed as increase in adipocyte differentiation after 14 days by Oil Red O staining method. The class given is cell-based.
Test [6] concerns the target T5, Peroxisome proliferator-activated receptor alpha (Homo sapiens) (UniProt Q07869).
T5 sequence (whole entry): T2 sequence (Q07869 whole entry)
Nature of the test: Agonist activity at Gal4-tagged human PPARalpha ligand binding domain expressed in COS-7 cells at 10 um measured after overnight incubation by dual-glo luciferase reporter gene assay. The class given is cell-based.

The target in test [7] is T5, Peroxisome proliferator-activated receptor alpha (Homo sapiens). Kind of test: Agonist activity at Gal4-tagged human PPARalpha ligand binding domain expressed in COS-7 cells at 30 uM measured after overnight incubation by dual-glo luciferase reporter gene assay. The class given is cell-based.
The target of test [8] is T6, Peroxisome proliferator-activated receptor delta (Homo sapiens) (UniProt Q03181).
T6 sequence (whole entry): T3 sequence (Q03181 whole entry)
Nature of the test: Agonist activity at Gal4-tagged human PPARdelta ligand binding domain expressed in COS-7 cells at 30 uM measured after overnight incubation by dual-glo luciferase reporter gene assay. The class given is cell-based.

Test [9] addresses T7, Peroxisome proliferator-activated receptor gamma (Homo sapiens) (UniProt P37231).
T7 sequence (whole entry): T4 sequence (P37231 whole entry)
Kind of test: Agonist activity at Gal4-tagged human PPARgamma ligand binding domain expressed in COS-7 cells at 30 uM measured after overnight incubation by dual-glo luciferase reporter gene assay. The test is classed as cell-based.

The subject of test [10] is 3T3-L1. Kind of test: Agonist activity at PPAR in mouse 3T3L1 cells assessed as increase in adipocyte differentiation at 2 uM after 14 days by Oil Red O staining method. The class given is cell-based.
For test [11], the target named is T7, Peroxisome proliferator-activated receptor gamma (Homo sapiens). Nature of the test: Agonist activity at Gal4-tagged human PPARgamma ligand binding domain expressed in COS-7 cells at 10 uM measured after overnight incubation by dual-glo luciferase reporter gene assay. The class given is cell-based.

With `CCCCCCC(Sc1nc(Cl)cc(NCCCC(=O)NCc2ccccc2C(F)(F)F)n1)C(=O)O` (configuration not stated), the IC50 in [1] (read-out: IC50) came to 1200 nM. Also, the half-maximal effective concentration (EC50) in [2] (read-out: EC50) is 2500 nM; in test [3] (cos-7) it was “Not Active”; in test [4] (read-out: EC50), 6000 nM. Besides, in [5], the Activity result was “Dose-dependent effect”.

Consider `CCC(Cc1ccc(N2CCC(C(=O)NCc3ccccc3C(F)(F)F)CC2)cc1)C(=O)O` (configuration not stated), for which the 50% inhibitory concentration (IC50) in test [1] (read-out: IC50) came to 75 nM. Further, the concentration giving a half-maximal response (EC50) entry in test [2] (cos-7), in test [3] (cos-7) and in [4] (cos-7) was “Not Active” in each case.

On to `CCOC(=O)C(CC)Cc1ccc(N2CCC(C(=O)NCc3ccccc3C(F)(F)F)CC2)cc1` (configuration not stated), for which the IC50 in [1] (read-out: IC50) amounted to 23 nM. Further, the EC50 result in test [2] (cos-7), in [3] (cos-7) and in test [4] (cos-7) was “Not Active” throughout.

As for `CNc1nc(C)nc(N[C@H]2CCC[C@@H](C(=O)NCc3ccc(C#N)cc3C(F)(F)F)C2)n1` [GSK2256294], the EC50 result in test [2] (cos-7), in test [3] (cos-7) and in test [4] (cos-7) was “Not Active” throughout.

Turning to `CCOC(=O)/C(=C/c1ccc(N2CCC(C(=O)NCc3ccccc3C(F)(F)F)CC2)cc1)CC`, the IC50 in [1] (read-out: IC50) amounted to 40 nM. In addition, the EC50 result in test [2] (cos-7), in [3] (cos-7) and in test [4] (cos-7) was “Not Active” each time.

As to `CCCCCCC(Sc1nc(Cl)cc(N2CCC(C(=O)NCc3ccccc3C(F)(F)F)CC2)n1)C(=O)O` (configuration not stated), in [1] (read-out: IC50), the IC50 was 300 nM. In test [6], this compound came in with an Emax of 65%. The EC50 result in test [3] (cos-7) and in test [4] (cos-7) was “Not Active” each time.

For `CCOC(=O)C(C)Oc1ccc(CCNC(=O)Nc2ccc(Cl)cc2)cc1` (configuration not stated), the IC50 in test [1] (read-out: IC50) worked out at 27 nM. Further, the outcome in test [7], in test [8] and in test [9] was inactive.

`CCOC(=O)C(C)Oc1ccc(CNC(=O)Nc2ccc(Cl)cc2)cc1` (configuration not stated): in [1] (read-out: IC50), the IC50 amounted to 64 nM. Also, the outcome in test [7], in test [8] and in test [9] was inactive.

`CC/C(=C\c1ccc(N2CCC(C(=O)NCc3ccccc3C(F)(F)F)CC2)cc1)C(=O)O`: the IC50 in test [1] (read-out: IC50) was 27 nM. Besides, the EC50 entry in test [2] (cos-7), in test [3] (cos-7) and in test [4] (cos-7) was “Not Active” throughout.

In the case of `CC(Oc1ccc(CNC(=O)Nc2ccc(Cl)cc2)cc1)C(=O)O` (configuration not stated), the IC50 in test [1] (read-out: IC50) was found to be 850 nM. Besides, the outcome in [7], in test [8] and in test [9] was inactive.

As for `CCCCCCC(Sc1nc(Cl)cc(NCCCC(=O)NCc2ccccc2C(F)(F)F)n1)C(=O)OCC` (configuration not stated), the IC50 in [1] (read-out: IC50) was 1300 nM. The EC50 entry in test [2] (cos-7), in test [3] (cos-7) and in test [4] (cos-7) was “Not Active” in each case.

On to `CN(CCOc1ccc(CC2SC(=O)NC2=O)cc1)c1ccccn1` (configuration not stated), for which, in test [10], the result was Active.

As for `CC(C)(Oc1ccc(CCNC(=O)c2ccc(Cl)cc2)cc1)C(=O)O` [BEZAFIBRATE], in test [1], the IC50 result is listed as “Not Active”. In addition, the EC50 amounted to 22600 nM in test [3] (read-out: EC50) and 15400 nM in [4] (read-out: EC50).

Take `O=C(Nc1ccc(I)cc1)NC1CCCCC1`: the EC50 entry in test [2] (cos-7) and in test [3] (cos-7) was “Not Active” throughout. In addition, in [11], the Emax came to 22%.

On to `CCCCCCC(Sc1nc(Cl)cc(N2CCC(C(=O)NCc3ccccc3C(F)(F)F)CC2)n1)C(=O)OCC` (configuration not stated), for which the IC50 in test [1] (read-out: IC50) was 2500 nM. The concentration giving a half-maximal response (EC50) entry in test [2] (cos-7), in test [3] (cos-7) and in test [4] (cos-7) was “Not Active” throughout.

Consider `CC(Oc1ccc(CCNC(=O)Nc2ccc(Cl)cc2)cc1)C(=O)O` (configuration not stated), for which the IC50 in test [1] (read-out: IC50) was found to be 570 nM. The outcome in test [7], in test [8] and in test [9] was inactive.

`CCCCCCC(Sc1nc(Cl)cc(Nc2ccc(Nc3ccccc3)cc2)n1)C(=O)O` (configuration not stated): the IC50 result in [1] was “Not Active”. Moreover, the results for the EC50 in test [2] (read-out: EC50) and in test [3] (cos-7) were 67 nM and “Not Active”, respectively.
